# Laboratory results from patent publication US7495018B2, “Substituted 1,3-thiazole compounds, their production and use” (Takeda Pharmaceutical Company Limited, priority 2000, dated 2009).
row,melting point,SMILES
1,140 to 141 °C,"CCc1nc(-c2ccc(F)cc2)c(-c2ccnc(N)c2)s1 [Example Compound 20-3, 4-[2-ethyl-4-(4-fluorophenyl)-1,3-thiazol-5-yl]-2-pyridylamine]"
2,117 to 118 °C,"CCc1nc(-c2cccc(C(F)(F)F)c2)c(-c2ccnc(N)c2)s1 [Example Compound 20-4, 4-[2-ethyl-4-[3-(trifluoromethyl)phenyl]-1,3-thiazol-5-yl]-2-pyridylamine]"
3,119 to 120 °C,"CCc1nc(-c2ccc(SC)cc2)c(-c2ccnc(N)c2)s1 [Example Compound 20-5, 4-[2-ethyl-4-[4-(methylthio)phenyl]-1,3-thiazol-5-yl]-2-pyridylamine]"
4,153 to 154 °C,"CCc1nc(-c2cccc(F)c2)c(-c2ccnc(N)c2)s1 [Example Compound 20-6, 4-[2-ethyl-4-(3-fluorophenyl)-1,3-thiazol-5-yl]-2-pyridylamine]"
5,136 to 137 °C,"CCc1nc(-c2ccc(Cl)cc2)c(-c2ccnc(N)c2)s1 [Example Compound 20-7, 4-[4-(4-chlorophenyl)-2-ethyl-1,3-thiazol-5-yl]-2-pyridylamine]"
6,128 to 129 °C,"CCc1cccc(-c2nc(CC)sc2-c2ccnc(N)c2)c1 [Example Compound 20-8, 4-[2-ethyl-4-(3-ethylphenyl)-1,3-thiazol-5-yl]2-pyridylamine]"
7,134 to 135 °C,"CCc1nc(-c2ccc(F)c(C)c2)c(-c2ccnc(N)c2)s1 [Example Compound 20-9, 4-[2-ethyl-4-(4-fluoro-3-methylphenyl)-1,3-thiazol-5-yl]-2-pyridylamine]"
8,80 to 81 °C,"CCc1nc(-c2cccc(C(C)C)c2)c(-c2ccnc(N)c2)s1 [Example Compound 20-10, 4-[2-ethyl-4-[3-(1-methylethyl)phenyl]-1,3-thiazol-5-yl]-2-pyridylamine]"
9,72 to 74 °C,"CCCc1cccc(-c2nc(CC)sc2-c2ccnc(N)c2)c1 [Example Compound 20-11, 4-[2-ethyl-4-(3-propylphenyl)-1,3-thiazol-5-yl]-2-pyridylamine]"
10,159 to 160 °C,"CCc1nc(-c2cccs2)c(-c2ccnc(N)c2)s1 [Example Compound 20-12, 4-[2-ethyl-4-(2-thienyl)-1,3-thiazol-5-yl]-2-pyridylamine]"
11,99 to 100 °C,"CCCc1nc(-c2cccc(Cl)c2)c(-c2ccnc(N)c2)s1 [Example Compound 21-1, 4-[4-(3-chlorophenyl)-2-propyl-1,3-thiazol-5-yl]-2-pyridylamine]"
12,154 to 155 °C,"CCOC(=O)Cc1nc(-c2cccc(Cl)c2)c(-c2ccnc(N)c2)s1 [Example Compound 21-2, Ethyl [5-(2-amino-4-pyridyl)-4-(3-chlorophenyl)-1,3-thiazol-2-yl]acetate]"
13,152 to 153 °C,"Cc1cccc(-c2nc(C)sc2-c2ccnc(N)c2)c1 [Example Compound 23-1, 4-[2-methyl-4-(3-methylphenyl)-1,3-thiazol-5-yl]-2-pyridylamine]"
14,181 to 183 °C,"CSc1ccc(-c2nc(-c3cccc(C)c3)c(-c3ccnc(N)c3)s2)cc1 [Example Compound 23-2, 4-[4-(3-methylphenyl)-2-[4-(methylthio)phenyl]-1,3-thiazol-5-yl]-2-pyridylamine]"
15,140 to 141 °C,"COc1ccc(-c2nc(C)sc2-c2ccnc(N)c2)cc1 [Example Compound 23-3, 4-[4-(4-methoxyphenyl)-2-methyl-1,3-thiazol-5-yl]-2-pyridylamine]"
16,156 to 157 °C,"Cc1cccc(-c2nc(C(=O)O)sc2-c2ccnc(N)c2)c1 [Example Compound 25-1, 5-(2-amino-4-pyridyl)-4-(3-methylphenyl)-1,3-thiazole-2-carboxylic acid]"
17,135 to 136 °C,"Cc1cccc(-c2nc(C(=O)O)sc2-c2ccnc(C)c2)c1 [Example Compound 25-2, 5-(2-methyl-4-pyridyl)-4-(3-methylphenyl)-1,3-thiazole-2-carboxylic acid]"
18,91 to 92 °C,"Cc1cccc(-c2ncsc2-c2ccnc(N)c2)c1 [Example Compound 27-1, 4-[4-(3-methylphenyl)-1,3-thiazol-5-yl]-2-pyridylamine]"
19,142 to 143 °C,"Cc1nc(-c2cccc(Cl)c2)c(-c2ccnc(N)c2)s1 [Example Compound 27-2, 4-[4-(3-chlorophenyl)-2-methyl-1,3-thiazol-5-yl]-2-pyridylamine]"
20,123 to 125 °C,"CCc1nc(-c2cccc(C)c2)c(-c2ccnc(NC(=O)C3CCCC3)c2)s1 [Example Compound 29-1, N-[4-[2-ethyl-4-(3-methylphenyl)-1,3-thiazol-5-yl]-2-pyridyl]cyclopentanecarboxamide]"
21,112 to 115 °C,"CC(=O)Nc1cc(-c2sc(C)nc2-c2cccc(Cl)c2)ccn1 [Example Compound 30-1, N-[4-[4-(3-chlorophenyl)-2-methyl-1,3-thiazol-5-yl]-2-pyridyl]acetamide]"
22,149 to 150 °C,"CCc1nc(-c2cccc(Cl)c2)c(-c2ccnc(NC(C)=O)c2)s1 [Example Compound 30-2, N-[4-[4-(3-chlorophenyl)-2-ethyl-1,3-thiazol-5-yl]-2-pyridyl]acetamide]"
23,144 to 145 °C,"CCCc1nc(-c2cccc(Cl)c2)c(-c2ccnc(NC(C)=O)c2)s1 [Example Compound 30-3, N-[4-[4-(3-chlorophenyl)-2-propyl-1,3-thiazol-5-yl]-2-pyridyl]acetamide]"
24,154 to 155 °C,"CCc1nc(-c2cccs2)c(-c2ccnc(NC(C)=O)c2)s1 [Example Compound 30-4, N-[4-[2-ethyl-4-(2-thienyl)-1,3-thiazol-5-yl]-2-pyridyl]acetamide]"

# The next lines start with the compound.
row,SMILES,melting point
1,"Cc1cccc(-c2nc(Cc3ccccc3)sc2-c2ccnc(C)c2)c1 [Example Compound 14-7, 4-(3-methylphenyl)-5-(2-methyl-4-pyridyl)-2-(phenylmethyl)-1,3-thiazole]",82 to 84 °C
2,"Cc1cccc(-c2nc(CCc3ccccc3)sc2-c2ccnc(C)c2)c1 [Example Compound 14-8, 4-(3-methylphenyl)-5-(2-methyl-4-pyridyl)-2-(2-phenylethyl)-1,3-thiazole]",64 to 65 °C
3,"CCOC(=O)c1nc(-c2cccc(C)c2)c(-c2ccnc(C)c2)s1 [Example Compound 14-12, Ethyl [4-(3-methylphenyl)-5-(2-methyl-4-pyridyl)-1,3-thiazol-2-yl]carboxylate]",97 to 98 °C
4,"Cc1cccc(-c2nc(N3CCN(C)CC3)sc2-c2ccnc(C)c2)c1 [Example Compound 14-13, 4-(3-methylphenyl)-2-(4-methylpiperazin-1-yl)-5-(2-methyl-4-pyridyl)-1,3-thiazole]",115 to 116 °C
5,"Cc1cccc(-c2nc(N3CCN(C)CC3)sc2-c2ccnc(C)c2)c1 [Example Compound 14-14, 4-(3-methylphenyl)-2-(1-methylpiperazin-4-yl)-5-(2-methyl-4-pyridyl)-1,3-thiazole]",127 to 130 °C
6,"CSc1ccc(-c2nc(-c3cccc(C)c3)c(-c3ccnc(F)c3)s2)cc1 [Example Compound 15, 5-(2-fluoro-4-pyridyl)-4-(3-methylphenyl)-2-[4-(methylthio)phenyl]-1,3-thiazole]",97 to 100 °C
7,"CSc1ccc(-c2nc(-c3cccc(C)c3)c(-c3ccnc(C)c3)s2)cc1 [Example Compound 16-1, 4-(3-methylphenyl)-5-(2-methyl-4-pyridyl)-2-[4-(methylthio)phenyl]-1,3-thiazole]",119 to 122 °C
8,"CSc1ccc(-c2nc(-c3cc(C)cc(C)c3)c(-c3ccnc(C)c3)s2)cc1 [Example Compound 16-2, 4-(3,5-dimethylphenyl)-5-(2-methyl-4-pyridyl)-2-[4-(methylthio)phenyl]-1,3-thiazole]",123 to 125 °C
9,"CSc1ccc(-c2nc(-c3cccc(C)c3)c(-c3cc(C)nc(C)c3)s2)cc1 [Example Compound 16-3, 5-(2,6-dimethyl-4-pyridyl)-4-(3-methylphenyl)-2-[4-(methylthio)phenyl]-1,3-thiazole]",112 to 114 °C
10,"CSc1ccc(-c2nc(-c3cc(C)cc(C)c3)c(-c3cc(C)nc(C)c3)s2)cc1 [Example Compound 16-4, 4-(3,5-dimethylphenyl)-5-(2,6-dimethyl-4-pyridyl)-2-[4-(methylthio)phenyl]-1,3-thiazole]",134 to 136 °C
11,"CSc1ccc(-c2nc(-c3ccc(F)cc3)c(-c3ccnc(C)c3)s2)cc1 [Example Compound 16-5, 4-(4-fluorophenyl)-5-(2-methyl-4-pyridyl)-2-[4-(methylthio)phenyl]-1,3-thiazole]",99 to 100 °C
12,"Cc1cccc(-c2nc(-c3ccc(F)cc3)sc2-c2ccnc(N)c2)c1 [Example Compound 18-1, 4-[2-(4-fluorophenyl)-4-(3-methylphenyl)-1,3-thiazol-5-yl]-2-pyridylamine]",160 to 162 °C
13,"Cc1cccc(-c2nc(CC(F)(F)F)sc2-c2ccnc(N)c2)c1 [Example Compound 18-3, 4-[4-(3-methylphenyl)-2-(2,2,2-trifluoroethyl)-1,3-thiazol-5-yl]-2-pyridylamine]",131 to 132 °C
14,"CCCc1nc(-c2cccc(C)c2)c(-c2ccnc(N)c2)s1 [Example Compound 18-4, 4-[4-(3-methylphenyl)-2-propyl-1,3-thiazol-5-yl]-2-pyridylamine]",113 to 115 °C
15,"CCOC(=O)Cc1nc(-c2cccc(C)c2)c(-c2ccnc(N)c2)s1 [Example Compound 18-5, Ethyl [5-(2-amino-4-pyridyl)-4-(3-methylphenyl)-1,3-thiazol-2-yl]acetate]",128 to 129 °C
16,"CCOC(=O)c1nc(-c2cccc(C)c2)c(-c2ccnc(N)c2)s1 [Example Compound 18-6, Ethyl [5-(2-amino-4-pyridyl)-4-(3-methylphenyl)-1,3-thiazol-2-yl]carboxylate]",147 to 148 °C
17,"CCc1nc(-c2cccc(Cl)c2)c(-c2ccnc(N)c2)s1 [Example Compound 20-1, 4-[2-ethyl-4-(3-chlorophenyl)-1,3-thiazol-5-yl]-2-pyridylamine]",132 to 133 °C
18,"CCc1nc(-c2ccccc2)c(-c2ccnc(N)c2)s1 [Example Compound 20-2, 4-(2-ethyl-4-phenyl-1,3-thiazol-5-yl)-2-pyridylamine]",158 to 159 °C
